# Results reported in patent publication US20240423981A1, “TREATMENT OF HCM WITH PYRIMIDINEDIONE COMPOUNDS” (MyoKardia, Inc., priority 2017, published 2024).
# Experiments:
# [1] = test system: subjects with symptomatic HCM and LVOT obstruction; assay: Phase 2 open-label pilot study Pioneer-HCM-B (Cohort B); format: in vivo, human
# Procedure: This trial was similar to the trial described in Example 3, but will have several important differences. For example, subjects in the Phase 2-B trial will not be required to discontinue their β-blocker therapy, and the dose of Compound 1 will be reduced to 2 to 5 mg.
# The following results were obtained generally following the procedures described in Example 3 and Example 5.
# [2] = Pharmacokinetics in Study Compound 1-002; format: in vivo; conditions: single oral doses, healthy men
# Procedure: In Study Compound 1-002, single doses from 1 mg to 48 mg were administered as an oral suspension to healthy men. […] Single doses of ≥12 mg of Compound 1 were associated with detectable reductions in LV contractility from baseline as assessed by 3 independent echocardiographic measures (left ventricular ejection fraction [LVEF], LV fractional shortening (LVFS), and LVOT velocity time integral [VTI]). At the highest dose studied in healthy subjects (48 mg), mean reduction in LVEF at any time point was −6% relative to baseline.
# Compound 1 concentrations were measured in human plasma using high pressure liquid chromatography (HPLC) coupled with tandem mass spectrometry (MS/MS). This method was used for Compound 1 bioanalysis in all clinical trials to date, and all clinical data has been collected using plasma. A brief description of the method follows.
# Liquid-liquid extraction and HPLC/MS/MS was used to determine the concentration of Compound 1 in human plasma. An aliquot of the extract was injected onto an HPLC instrument that is coupled with a triple quadrupole mass spectrometer (Sciex API5500). […] The peak area of the product ion of Compound 1 was measured against the peak area of the product ion of the internal standard for determination of concentration.
# [3] = 2 mg/day for 4 weeks, preliminary
# [4] = Cohort B (2-5 mg daily doses), mean ± SD
# [5] = Cohort B, baseline to Week 12, n 10
structure (smiles),measurement,setting,value
"CC(C)n1c(=O)cc(N[C@@H](C)c2ccccc2)[nH]c1=O [Compound 1, (S)-3-Isopropyl-6-((1-phenylethyl)amino) pyrimidine-2, 4(1H,3H)-dione]",LV filling pressure and diastolic peak mitral annular velocity,"[1]; 2 mg/day for 4 weeks, absence of a change in afterload",beneficial effects on LV filling pressure (↓E/e′ and NTpro-BNP) and in diastolic peak mitral annular velocity (e′)
same,LV systolic function at rest and immediately post-exercise,[1]; [3],not affected
same,effect on LVOT rest and exercise gradients,[1]; [3],consistent effect on LVOT rest and exercise gradients
same,NYHA functional class,"[1]; 12 weeks of Compound 1, 4 weeks of washout (FIG. 21)",improvement in NYHA functional class in individuals after 12 weeks and the reversal of improvement after 4 weeks of washout
same,patients with >1.5 mL/kg/min improvement in pVO2,[1]; Cohort B,*5 of 10 patients had >1.5 mL/kg/mm improvement in pVO2
same,patients with improved NYHA Class,[1]; Cohort B,8 of 10 and **Improved NYHA Class in 9 out of 10 patients
same,Resting Gradient Week 4,"[1]; Cohort B (2 mg/day), preliminary, mean ± SD, N 5, baseline 84 ± 76 (6)",59 ± 61 mm Hg
same,Septal e′ Week 4,"[1]; Cohort B (2 mg/day), preliminary, mean ± SD, N 6, baseline 3.9 ± 1.1 (6)",4.5 ± 1.4
same,Mean e′ Week 4,"[1]; Cohort B (2 mg/day), preliminary, mean ± SD, N 6, baseline 4.7 ± 1.0 (6)",5.7 ± 1.3
same,Lateral e′ Week 4,"[1]; Cohort B (2 mg/day), preliminary, mean ± SD, N 6, baseline 5.4 ± 1.0 (6)",7.0 ± 1.2
same,E/e′ Week 4,"[1]; Cohort B (2 mg/day), preliminary, mean ± SD, N 6, baseline 14.0 ± 3.4 (6)",10.7 ± 3.5
same,Post-exercise Gradient Week 4,"[1]; Cohort B (2 mg/day), preliminary, mean ± SD, N 6, baseline 70 ± 45 (6)",93 ± 56 mm Hg
same,Resting LVEF Week 4,"[1]; Cohort B (2 mg/day), preliminary, mean ± SD, N 6, baseline 71 ± 4 (6)",73 ± 6%
same,Stroke Volume Week 4,"[1]; Cohort B (2 mg/day), preliminary, mean ± SD, N 6, baseline 73.3 ± 6.5 (6)",77.8 ± 14.3 mL
same,Post-exercise LVEF Week 4,"[1]; Cohort B (2 mg/day), preliminary, mean ± SD, N 6, baseline 78 ± 9 (5)",76 ± 3%
same,NT-pro BNP Week 4,"[1]; Cohort B (2 mg/day), preliminary, mean ± SD, N 7, baseline 2162 ± 3601 (8)",1258 ± 1789 pg/mL
same,improvement in peak VO2 in 4 subjects,[1]; Cohort B (2-5 mg daily doses),≥ 2.9 mL/min/kg
same,Dyspnea numerical rating (signed change),[1]; [4],−3.0 ± 2.8
same,NYHA Class (signed change),[1]; [4],−1.0 ± 0.5
same,Peak VO2 (signed change),[1]; [4],+1.67 ± 2.3 mL/kg/min
same,Post-exercise peak LVOT gradient (signed change),[1]; [4],−25.0 ± 28.7 mmHg
same,Resting LVEF (signed change),[1]; [4],−5.5 ± 6.0%
same,Resting LVOT gradient (signed change),[1]; [4],−48.5 ± 48.0 mmHg
same,NT-proBNP Delta,"[1]; Cohort B, baseline to Week 12, n 9",−1195 ± 2770
same,Dyspnea score Delta,[1]; [5],−3.0 ± 2.8
same,E/e′ Delta,[1]; [5],−1.3 ± 4.6
same,LA Vol (index) Delta,[1]; [5],−6 ± 12 mL/m^2
same,LVEDV Delta,[1]; [5],6 ± 18
same,Lateral e′ Delta,[1]; [5],0.3 ± 2.2 cm/s
same,Dyspnea score Week 12,"[1]; Cohort B, baseline 4.0 ± 2.6, n 10",1.0 ± 0.7
same,Lateral e′ Week 12,"[1]; Cohort B, baseline 5.9 ± 1.0, n 10",6.1 ± 2.1 cm/s
same,E/e′ Week 12,"[1]; Cohort B, baseline 13.9 ± 3.5, n 10",12.6 ± 4.1
same,LA Vol (index) Week 12,"[1]; Cohort B, baseline 41 ± 20, n 10",35 ± 12 mL/m^2
same,LVEDV Week 12,"[1]; Cohort B, baseline 95 ± 15, n 10",101 ± 25
same,NT-proBNP Week 12,"[1]; Cohort B, baseline 1834 ± 3209, n 9",826 ± 1063
same,peak VO2,[1]; by week 12 (FIG. 23),improvement in peak VO2 by week 12
same,dyspnea,"[1]; throughout the trial, improvement reversed after 4 weeks of washout (FIG. 22)",rapid improvement in peak in dyspnea
same,half-life,"[2]; male, human, plasma, read-out: mean elimination half-life (converted)",~192 h
same,pharmacokinetic (PK) profile,[2],rapid absorption and subsequent distribution followed by a long elimination phase
